Source: the NIST ThermoML archive (doi:10.1021/je100927m)

Columns and labels:
[1] = Liquid; for mass density: 101.33 kPa; for speed of sound: Pulse-echo method
[2] = refractive index (Na D-line) (dimensionless); details: 298.15 K; 101.33 kPa; Liquid; Standard Abbe refractometry

CCCCC(CC)CO (stereo unspecified) [2-ethyl-1-hexanol]
[1]
Details | mass density [kg/m3]
283.15 K | 839.89
288.15 K | 836.26
293.15 K | 832.62
298.14 K | 828.96
303.15 K | 825.28
308.15 K | 821.58
313.14 K | 817.86
318.15 K | 814.11
323.15 K | 810.33
328.15 K | 806.52
333.15 K | 802.68
338.14 K | 798.8
343.15 K | 794.87
348.15 K | 790.91
353.15 K | 786.89
358.15 K | 782.83
363.15 K | 778.72

speed of sound [m/s], [1]
Details | 101 kPa | 15200 kPa | 30390 kPa | 45590 kPa | 60790 kPa | 75990 kPa | 91180 kPa | 101320 kPa
292.89 K | – | 1418.5 | 1487.2 | 1549.6 | 1607.2 | 1660.4 | 1710.5 | 1742
293.15 K | 1336.3 | – | – | – | – | – | – | –
298.15 K | 1318.4 | – | – | – | – | – | – | –
298.19 K | – | 1400.2 | 1470.1 | 1533.2 | 1591.5 | 1645.4 | 1696 | 1728
303.15 K | 1300.6 | 1383.5 | 1454.4 | 1518.4 | 1577.5 | 1631.8 | 1682.7 | 1715.1
308.13 K | – | 1367.2 | 1438.9 | 1503.8 | 1563.5 | 1618.6 | 1669.8 | 1702.5
308.15 K | 1282.8 | – | – | – | – | – | – | –
313.1 K | – | 1351.2 | 1424 | 1489.6 | 1549.7 | 1605.5 | 1657.2 | 1689.9
313.15 K | 1264.9 | – | – | – | – | – | – | –
318.15 K | 1247.1 | – | – | – | – | – | – | –
318.26 K | – | 1334.8 | 1408.8 | 1475.2 | 1535.9 | 1592.2 | 1644.5 | 1677.4

Details | refractive index
[2] | 1.4292
